A word on the IC50: it is the concentration that gives 50% inhibition. Read a high IC50 as weaker potency in that assay.

Consider 7 molecules from patent publication US20250179047A1, “5-[7-(3,4-DIHYDRO-1H-ISOQUINOLINE-2-CARBONYL)-1,2,3,4 TETRAHYDROISOQUINOLIN-6-YL]-1H-PYRROLE-3-CARBOXAMIDE DERIVATIVES, PHARMACEUTICAL COMPOSITIONS CONTAINING THEM AND THEIR USES AS PRO-APOPTOTIC AGENTS” (LES LABORATOIRES SERVIER, priority 2022, published 2025).

In assay [1] the target is BCL2 WT (Homo sapiens (Human), UniProt P10415). Description: TR-FRET competitive binding assay, BCL2 WT. Here is the method: (§1) The relative binding potency of each compound was determined in a competitive binding assay using time resolved-fluorescence resonance energy transfer (TR-FRET). The method utilised a fluorescein labelled peptide derived from PUMA (5Flu-Ahx-[…]-NH2 wherein Ahx means 6-hexanoic acid monomer and the amino acid sequence is referred to as SEQ ID:01) which binds to a terbium labelled BCL2 or BCLXL protein. The degree of binding or corresponding compound inhibition can be quantified by the TR-FRET signal between the terbium donor and fluorescein acceptor.
(§2) The human BCL2_wild-type (also named BCL2_wt), BCL2_G101V mutant and BCLXL_wild-type were E. coli expressed as a N-terminal Halo-fusion proteins and singly labelled with Terbium on the Halo protein to afford the following amino acid sequences:
(§3) wherein the BCL2(1-207) sequence corresponds to UniProtKB® primary accession number P10415 and the BCLXL(2-196) sequence corresponds to UniProtKB® primary accession number Q07817-1.
(§4) The assay was performed in a 40 μL volume in white 384-standard well plates (Corning #3574). An 11-point serial dilution of each compound was prepared in DMSO and transferred directly to plate followed by addition of fluorescein labelled peptide and lastly protein. Final assay conditions were 0.5 nM BCL2_wt, BCL2_G101V, BCL2_D103Y, BCL2_F104I, BCL2_D111A or BCLXL_wt, 2 or 20 nM fluorescein labelled peptide, 50 mM Hepes pH 7.5, 150 mM NaCl, 0.5 mM TCEP (Tris(2-carboxyethyl)phosphine), 0.05% Tween 20, 5% DMSO. The mixture was incubated for 2 hours at 23° C.
(§5) TR-FRET measurements were performed on a Biotek Synergy Neo plate reader. TR-FRET was measured by excitation of the Terbium-donor at 340 nm and subsequent (delay time 100 μs) measurement of terbium and fluorescein emission at 495 nm and 520 nm, respectively, over a collection time of 300 μs. The TR-FRET signal was calculated as the emission-ratio at 520 nm over 495 nm.
(§6) The TR-FRET ratio readout for test compounds was normalized against 0% inhibition controls wells and 100% inhibition control wells. Test compound potency (IC50) was estimated by nonlinear regression using the sigmoidal dose-response (variable slope) using Xlfit 4 (IDBS, Guildford, Surrey, UK, model 205). Were the IC50 could not be determined the % inhibition at the highest tested concentration is given.
(§7) y=(A+((B−A)/(1+((C/x)^D))))
(§8) where y is the normalized TR-TRET ratio measurement for a given concentration of test compound, x is the concentration of test compound, A is the estimated efficacy (% inhibition) at infinite compound dilution, and B is the maximal efficacy (% inhibition). C is the IC50 value and D is the Hill slope coefficient.
(§9) The K1 values were determined from the IC50 values according to Cer et al, Nucleic Acids Res, 2009, July 1; 37 (WebServer issue): W441-W445.
In general terms: Time-resolved FRET reads energy transfer from a long-lived donor to a nearby acceptor.

Assay [2] deals with BCL2 G101V (Homo sapiens, UniProt P10415, G101V). Nature of the assay: TR-FRET competitive binding assay, BCL2 G101V. The settings on record: BCL2 G101V; Ki determined from IC50; read-out: TR_FRET EKI_Bcl2 G101V. Here is the method:
as §1, §2, §3, §4, §5, §6, §7, §8, §9

In assay [3] the test system is BCL2 G101V. Description: TR-FRET competitive binding assay, BCL2 G101V. Set-up: species or system human. Conditions: for TR_FRET EKI G101V/WT selectivty: ratio of Ki BCL2 G101V to BCL2 WT; for TR_FRET EKI G101V/WT selectivty ratio: ratio Ki BCL2 G101V / Ki BCL2 WT. On the procedure: as §1, §2, §3, §4, §5, §6, §7, §8, §9
Assay [4] deals with BCL2 D103Y (Homo sapiens, UniProt P10415, D103Y). Description: TR-FRET competitive binding assay, BCL2 D103Y. Conditions: Ki determined from IC50, read-out: TR_FRET EKI_Bcl2 D103Y. Here is the method: as §1, §2, §3, §4, §5, §6, §7, §8, §9
The target of assay [5] is BCLXL WT (Homo sapiens (Human), UniProt Q07817). Description: TR-FRET competitive binding assay, BCLXL WT. Conditions: for Ki: BCLXL WT, Ki determined from IC50, read-out: TR_FRET EKI BclxL; for TR_FRET EKI BCLxL/WT selectivty: ratio of Ki BCLxL to BCL2 WT; for TR_FRET EKI BCLxL/WT selectivty ratio: ratio Ki BCLxL / Ki BCL2 WT. Here is the method: as §1, §2, §3, §4, §5, §6, §7, §8, §9

Assay [6] has as its system KMS-12-PE Bcl-2 WT. Nature of the assay: In vitro cytotoxicity CellTiter-Glo 48 h, KMS-12-PE Bcl-2 WT. Type of assay: cell-based. The settings on record: Homo sapiens, KMS-12-PE, C50 = concentration needed to reach 50% of the cellular viability. Here is the method: KMS-12-PE (ACC 606) were purchased from the Leibniz-Institute DSMZ (Braunschweig, Germany) and were grown at 37° C. in a humidified atmosphere with […] in media recommended by the suppliers. Lentiviral particles containing Bcl-2 wild type (also named “Bcl2 WT”) and Bcl-2 mutated on G101V (also named “Bcl2 G101V”) were cloned into pcLV-CMV-DEST-IRES-TagRFP. Lentiviral particles (1×106) were mixed with Polybrene at 8 µg/ml and transduced by spinoculation for 1 h at 32° C. and incubated overnight. After 8 days, TagRFP positive-cells were sorted by FACS. BCL2 expression was monitored by immunoblotting using anti-Flag and anti-BCL2 antibodies.
Cellular viability was monitored with the cell viability assay (CellTiter-Glo®) on KMS-12-PE WT and G101V cell lines. The CellTiter-Glo® (CTG) Luminescent Cell Viability Assay (from Promega) is a homogeneous method to determine the number of viable cells in culture based on quantitation of the ATP present, which signals the presence of metabolically active cells.
Dose response of compounds are performed with 10 mM stock solutions (DMSO), 11-points curve, in a 384-well compound plate. The assay plate is prepared by stamping 40 nL from compound dilution plate of all different concentrations (e.g. 10 mM to have final […] assay test) into a cell culture microplate, using Echo acoustic liquid handling (Labcyte, Beckman). 40 μl of cell solution is added and cells are incubated with compounds for 48 h at 37° C., 5% CO2. CTG was added to the cells (according to the manufacturer instructions) and luminescence intensity was recorded using the Pherastar plate reader (BMG).
This assay provides in vitro cellular potency of the tested Bcl-2 inhibitors, measuring the C50, defined as the concentration needed to reach 50% of the cellular viability.
For orientation: ATP-based viability assays read luminescence as a measure of living cells.

The mark [7] stands for this setting: Ki determined from IC50, read-out: TR_FRET EKI_Bcl2.
Setting [8] is: Ki determined from IC50, read-out: TR_FRET EKI_Bcl2 WT.

Where two headings read alike, the source gives them in different places.

Sequence of BCLXL WT (Q07817 other isoform, or with tags, fused parts or gaps): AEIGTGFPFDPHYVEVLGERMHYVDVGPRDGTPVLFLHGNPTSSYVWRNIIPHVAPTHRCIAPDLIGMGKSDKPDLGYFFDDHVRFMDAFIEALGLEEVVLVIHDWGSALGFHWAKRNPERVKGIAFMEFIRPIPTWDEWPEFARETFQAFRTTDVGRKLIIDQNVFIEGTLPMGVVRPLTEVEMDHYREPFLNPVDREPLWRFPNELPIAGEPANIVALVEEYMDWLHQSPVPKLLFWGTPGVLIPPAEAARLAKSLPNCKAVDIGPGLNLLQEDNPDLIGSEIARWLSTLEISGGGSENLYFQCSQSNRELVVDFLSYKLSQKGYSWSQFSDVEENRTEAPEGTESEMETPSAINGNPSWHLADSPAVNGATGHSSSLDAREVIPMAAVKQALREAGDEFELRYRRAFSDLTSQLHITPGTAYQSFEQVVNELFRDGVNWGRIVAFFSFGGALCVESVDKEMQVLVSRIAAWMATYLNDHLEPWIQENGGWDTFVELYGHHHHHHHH

Regarding `Cc1cc(OCCN2CCOCC2)c(F)cc1CC(=O)N1CCc2cc(-c3cc(C(=O)N(c4ccc(O)cc4)c4cc(C#N)n(C)c4C)c(C)n3C)c(C(=O)N3Cc4ccccc4C[C@H]3C)cc2C1` [Example 224, N-(5-cyano-1,2-dimethyl-pyrrol-3-yl)-5-[2-[2-[5-fluoro-2-methyl-4-(2-morpholinoethoxy)phenyl]acetyl]-7-[(3R)-3-methyl-3,4-dihydro-1H-isoquinoline-2-carbonyl]-3,4-dihydro-1H-isoquinolin-6-yl]-N-(4-hydroxyphenyl)-1,2-dimethyl-pyrrole-3-carboxamide], the Ki in assay [1] (setting [7]) came to 0.073 nM; in assay [2], 0.8 nM; in assay [4], 0.18 nM; in assay [5], 1.3 nM. Further, in assay [3], the “TR_FRET EKI G101V/WT selectivty” value is 10.5. Also, the “TR_FRET EKI BCLxL/WT selectivty” value in assay [5] is given as 17.7.
On to `CCn1cc(N(C(=O)c2cc(-c3cc4c(cc3C(=O)N3Cc5ccccc5C[C@H]3C)CN(C(=O)Cc3ccc(OCCN5CCOCC5)cc3)CC4)n(C)c2C)c2ccccc2)c(C)n1` [Example 210, N-(1-ethyl-3-methyl-pyrazol-4-yl)-1,2-dimethyl-5-[7-[(3R)-3-methyl-3,4-dihydro-1H-isoquinoline-2-carbonyl]-2-[2-[4-(2-morpholinoethoxy)phenyl]acetyl]-3,4-dihydro-1H-isoquinolin-6-yl]-N-phenyl-pyrrole-3-carboxamide], for which the Ki in assay [1] (setting [8]) worked out at 0.04 nM; in assay [2] it was 4.1 nM; in assay [4] it was 0.11 nM; in assay [5] it was 29 nM. The “TR_FRET EKI G101V/WT selectivty ratio” value in assay [3] was 118.3. The “TR_FRET EKI BCLxL/WT selectivty ratio” value in assay [5] is listed as 828.6. This molecule displayed a 50% inhibitory concentration (IC50) in assay [6] of 0.0395 µM.
`COc1ccc(N(C(=O)c2cc(-c3cc4c(cc3C(=O)N3Cc5ccccc5C[C@H]3C)CN(C(=O)Cc3ccc(OCCN5CCOCC5)cc3)CC4)n(C)c2C)c2ccc(F)cc2)cc1C#N` [Example 209, N-(3-cyano-4-methoxy-phenyl)-N-(4-fluorophenyl)-1,2-dimethyl-5-[7-[(3R)-3-methyl-3,4-dihydro-1H-isoquinoline-2-carbonyl]-2-[2-[4-(2-morpholinoethoxy)phenyl]acetyl]-3,4-dihydro-1H-isoquinolin-6-yl]pyrrole-3-carboxamide]: the Ki was found to be 0.08 nM in assay [1] (setting [8]), 3.8 nM in assay [2], 0.21 nM in assay [4] and 23 nM in assay [5]. Further, in assay [3], the “TR_FRET EKI G101V/WT selectivty ratio” value came to 47.5. For the same molecule, the “TR_FRET EKI BCLxL/WT selectivty ratio” value in assay [5] was 291.1. In addition, half-maximal inhibition in assay [6] (IC50) was put at 0.0486 µM.
In the case of `Cc1c(C(=O)N(c2ccccc2)c2cc(F)cc(C#N)c2)cc(-c2cc3c(cc2C(=O)N2Cc4ccccc4C[C@H]2C)CN(C(=O)Cc2ccc(OCCN4CCOCC4)cc2F)CC3)n1C` [Example 227, N-(3-cyano-5-fluoro-phenyl)-5-[2-[2-[2-fluoro-4-(2-morpholinoethoxy)phenyl]acetyl]-7-[(3R)-3-methyl-3,4-dihydro-1H-isoquinoline-2-carbonyl]-3,4-dihydro-1H-isoquinolin-6-yl]-1,2-dimethyl-N-phenyl-pyrrole-3-carboxamide], the Ki in assay [1] (setting [7]) was found to be 0.17 nM; in assay [2], 10.8 nM; in assay [4], 0.33 nM; in assay [5], 37.2 nM. In addition, the “TR_FRET EKI G101V/WT selectivty” value in assay [3] worked out at 63.7. The “TR_FRET EKI BCLxL/WT selectivty” value in assay [5] came out at 219.1. Besides, half-maximal inhibition in assay [6] (IC50) required 0.0254 µM.
In the case of `Cc1c(N(C(=O)c2cc(-c3cc4c(cc3C(=O)N3Cc5ccccc5C[C@H]3C)CN(C(=O)C(F)(F)c3ccc(N5CCN(C)CC5)cc3)CC4)n(C)c2C)c2ccc(O)cc2)cc(C#N)n1C` [Example 26, N-(5-cyano-1,2-dimethylpyrrol-3-yl)-5-(2-{2,2-difluoro-2-[4-(4-methylpiperazin-1-yl)phenyl]acetyl}-7-{[(3R)-3-methyl-3,4-dihydro-1H-isoquinolin-2-yl]carbonyl}-3,4-dihydro-1H-isoquinolin-6-yl)-N-(4-hydroxyphenyl)-1,2-dimethylpyrrole-3-carboxamide], the Ki in assay [1] (setting [8]) was 1.1 nM; in assay [2], 5.3 nM; in assay [4], 0.83 nM; in assay [5] it was 23.2 nM. The “TR_FRET EKI G101V/WT selectivty ratio” value in assay [3] is on record as 4.8. Moreover, the “TR_FRET EKI BCLxL/WT selectivty ratio” value in assay [5] is listed as 21.1.
For the molecule `Cc1cc(OCCN2CCOCC2)c(F)cc1CC(=O)N1CCc2cc(-c3cc(C(=O)N(c4ccc(O)cc4)c4cc(C#N)n(C)c4C)c(C)n3C)c(C(=O)N3Cc4ccccc4C[C@H]3CN3CCCCC3)cc2C1` [Example 223, N-(5-cyano-1,2-dimethyl-pyrrol-3-yl)-5-[2-[2-[5-fluoro-2-methyl-4-(2-morpholinoethoxy)phenyl]acetyl]-7-[(3S)-3-(1-piperidylmethyl)-3,4-dihydro-1H-isoquinoline-2-carbonyl]-3,4-dihydro-1H-isoquinolin-6-yl]-N-(4-hydroxyphenyl)-1,2-dimethyl-pyrrole-3-carboxamide], the Ki in assay [1] (setting [8]) turned out to be 0.18 nM; in assay [2] it was 1.6 nM; in assay [4] it was 0.26 nM; in assay [5], 4.3 nM. For the same molecule, in assay [3], the “TR_FRET EKI G101V/WT selectivty ratio” value is reported as 9.3. Also, in assay [5], the “TR_FRET EKI BCLxL/WT selectivty ratio” value stood at 24.6.
In the case of `Cc1cc(OCCN2CCOCC2)c(F)cc1CC(=O)N1CCc2cc(-c3cc(C(=O)N(c4ccccc4)c4cnn(C)c4)c(C)n3C)c(C(=O)N3Cc4ccccc4C[C@H]3C)cc2C1` [Example 225, 5-[2-[2-[5-fluoro-2-methyl-4-(2-morpholinoethoxy)phenyl]acetyl]-7-[(3R)-3-methyl-3,4-dihydro-1H-isoquinoline-2-carbonyl]-3,4-dihydro-1H-isoquinolin-6-yl]-1,2-dimethyl-N-(1-methylpyrazol-4-yl)-N-phenyl-pyrrole-3-carboxamide], the Ki was determined as 0.11 nM in assay [1] (setting [7]), 25.6 nM in assay [2], 0.14 nM in assay [4] and 23.6 nM in assay [5]. Moreover, the “TR_FRET EKI G101V/WT selectivty” value in assay [3] was 233.0. In addition, the “TR_FRET EKI BCLxL/WT selectivty” value in assay [5] amounted to 214.3.
